Results published in PMC7801526, “Cryo-EM structure of Helicobacter pylori urease with an inhibitor in the active site at 2.0 Å resolution” (Nature Communications, 2021).

How the values were obtained:
[1] = biological target: T1, urease, catalytic subunit UreB (Helicobacter pylori, UniProt P69996); experiment: cryo-EM structure at […] Å; phenol red assay on purified urease (IC50 […], Ki by Cheng-Prusoff); assay type: biochemical
T1 construct: with UreA

[2] = biological target: T1, urease, catalytic subunit UreB; experiment: phenol red assay on purified urease (IC50 […], Ki by Cheng-Prusoff); assay type: biochemical

T1 sequence (P69996 whole entry): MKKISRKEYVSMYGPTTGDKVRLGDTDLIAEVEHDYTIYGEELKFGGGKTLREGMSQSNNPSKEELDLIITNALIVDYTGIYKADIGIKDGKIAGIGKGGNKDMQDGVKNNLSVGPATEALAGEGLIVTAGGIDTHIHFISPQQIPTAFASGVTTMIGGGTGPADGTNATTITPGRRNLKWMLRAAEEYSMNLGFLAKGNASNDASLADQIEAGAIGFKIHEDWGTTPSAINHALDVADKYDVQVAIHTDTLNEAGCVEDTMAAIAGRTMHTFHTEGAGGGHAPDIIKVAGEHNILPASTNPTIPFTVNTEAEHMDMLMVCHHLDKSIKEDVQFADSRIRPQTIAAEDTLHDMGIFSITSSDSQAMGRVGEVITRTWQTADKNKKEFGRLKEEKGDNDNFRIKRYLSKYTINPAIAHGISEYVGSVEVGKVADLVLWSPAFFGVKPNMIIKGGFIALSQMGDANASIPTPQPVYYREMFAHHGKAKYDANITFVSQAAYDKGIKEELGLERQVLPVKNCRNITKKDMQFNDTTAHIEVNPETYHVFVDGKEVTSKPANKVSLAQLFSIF
T1 sequence (P14916 whole entry, further chain): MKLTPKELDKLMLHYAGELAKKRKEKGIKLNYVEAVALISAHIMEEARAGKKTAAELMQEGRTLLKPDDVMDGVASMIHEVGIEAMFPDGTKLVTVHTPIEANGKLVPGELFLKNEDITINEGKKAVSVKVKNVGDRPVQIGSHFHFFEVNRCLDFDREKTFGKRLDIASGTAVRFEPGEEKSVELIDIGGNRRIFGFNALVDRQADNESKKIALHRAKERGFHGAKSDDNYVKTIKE

SMILES | Ki [1] [µM] | Ki [2] [µM]
OCCS [BME, β-mercaptoethanol] | 435 | –
Cc1cc(C)cc(-n2ccnc2SCC(=O)NO)c1 [SHA, 2-{[1-(3,5-dimethylphenyl)-1H-imidazol-2-yl]sulfanyl}-N-hydroxyacetamide] | – | 0.63
